# According to patent US4612302A, “Clinical use of somatostatin analogues” (Brigham and Women's Hospital, priority 1983, dated 1986):
# Non-standard residues stand in square brackets, D forms with d. Residues, ends and D or L forms follow the SMILES beside them. No end group written: not given here.
# What was measured:
# [1] = system: liver injury induced by galactosamine; experiment: Galactosamine-induced liver injury (hepatic necrosis and inflammation) in rats; format: in vivo, female Spraque-Dawley rats; conditions: 28 hr after galactosamine 1 g/kg i.p., somatostatin 250 μg, analogues 125 μg i.p.; for Liver histology (Scale: 0-4): scale 0-4, 4 = greatest damage
# Method: (§1) All of the experiments described below were performed in female Spraque-Dawley rats (ESS Laboratories, Lynnfield, Mass.) with an initial body weight of 150-180 g, and with unlimited access to Purina laboratory chow and tap water. Control and experimental groups consisted of 3-4 rats. Each experiment was repeated at least twice and the results were pooled. Analogue I is cyclo[L-Pro-Phe-D-Trp-Lys-Thr-L-Phe]. Analogue II is cyclo[L-Phe-Phe-L-Trp-Lys-Thr-D-Phe]. These are preferred compounds for all aspects of the invention. The compound can be synthesized according to the procedure described in Veber et al., Nature, 292, 55-58 (1981), which is herein incorporated by reference. Basically, the linear peptide is prepared by a solid phase technique, for example, using a Beckman 990 peptide synthesizer following the protocol described in Strachan et al, J. Med. Chem., 22, 586-588 (1979), which is herein incorporated by reference. The linear peptide can then be cyclized by the technique of Veber et al, Proc. Natl. Acad. Sci. USA, 75, 2636-2640 (1978), which is also herein incorporated by reference. Linear or cyclic somatostatin (Serono) or a somatostatin analogue was injected under mild ether anesthesia at 50 μg in 0.5 ml of saline into the jugular vein once daily for 3 consecutive days prior to injection with carbon. Control animals were injected with the same amount of saline. In all of the carbon clearance experiments, 0.1 ml/100 g of the supernatant of centrifuged (3000 rpm/15 min) colloidal carbon (Wagner's india ink) was injected i.v. under mild ether anesthesia. Blood samples (50 μl) were obtained with heparinized glass capillaries and by puncture of the retro-orbital venous plexus at 3, 6, 12 and 24 minutes after the administration of carbon. The blood samples were lysed in 2 ml of 0.1% Na2 CO3 solution and the quantity of carbon in the blood was measured.
# The liver protection studies included the effect of somatostatin and analogues on liver injury induced by galactosamine or phalloidin. Galactosamine-induced hepatic necrosis and inflammation was produced by injecting rats with 1 g/kg of galactosamine i.p. at 0 hr. Regular somatostatin was injected at 250 μg, analogues at 125 μg i.p. at -30 and […]. The animals were killed at 28 hr after galactosamine. Liver damage was measured by the elevation of serum transaminase (SGOT) and by liver histology (scale: 0-4 with 4 indicating the greatest damage).
# phagocytes = experiment: Carbon clearance (colloidal carbon / India ink) from the blood of rats; format: in vivo, female Spraque-Dawley rats; conditions: for India ink (μl/ml blood) 3 min: 3 min after i.v. colloidal carbon; for India ink (μl/ml blood) 3 min / India ink (μl/ml blood) 6 min / India ink (μl/ml blood) 12 min / India ink (μl/ml blood) 24 min: 50 μg i.v. once daily for 3 days before carbon; for India ink (μl/ml blood) 6 min: 6 min after i.v. colloidal carbon; for India ink (μl/ml blood) 12 min: 12 min after i.v. colloidal carbon; for India ink (μl/ml blood) 24 min: 24 min after i.v. colloidal carbon; for Speed of action in carbon clearance compared with somatostatin: greater carbon clearance at 6 minutes than somatostatin; for Potency in carbon clearance compared with somatostatin: lower levels of carbon at the late time intervals
# Method: Rats were injected either with saline or with a colloidal carbon suspension, and the time required for clearing of colloidal particles from the blood stream was measured. In a comparative experiment, zymosan, an agent known to increase the activity or phagocytes, was administered instead of the somatostatin analogue. In rats which received injections of saline, the disappearance of colloidal carbon from the blood was virtually linear, an expected result based on previous studies by others. Administration of a somatostatin analogue markedly accelerated the carbon clearance, even more so than for somatostatin itself.
# as §1
# [2] = system: liver injury induced by phalloidin; experiment: Phalloidin-induced liver and hepatic blood vessel lesions in rats; format: in vivo; conditions: phalloidin 0.12 mg per 100 g i.p.
# Method: This toxin kills rats within about 4 hours after intraperitoneal injection. Rats injected with 0.12 mg phalloidin per 100 g body weight (i.p.) show a massive increase in liver size accompanied by hemorrhage. In a control group of rats given phalloidin but no somatostatin analogue, 22 of 24 rats died within 2-4 hours.
# In both cases, rats were given saline (control), phalloidin alone, or phalloidin and a somatostatin analogue. Somatostatin analogues were given in subcutaneous injections in a solution of protamine sulfate and zinc chloride in order to prolong its effectiveness, or in normal saline.
# In the biochemical experiments, the animals were also injected with Evans blue 15 min before autopsy. At autopsy the portal vein was perfused in situ with 20 ml of saline to remove blood from hepatic vaculature. Phalloidin caused a time dependent increase in the hepatic uptake of Evans blue, indicative of leakage of blood into the tissue through blood vessel lesions. Somatostatin analogue treatment virtually abolished this enhanced uptake of the dye. In the morphologic experiments, groups of rats were also injected with colloidal carbon (India ink, […] i.v.) 15 min before autopsy. At that time pieces of liver were processed for subsequent light or electron microscopic studies. […]
compound,measurement,setting,value
"C[C@@H](O)[C@@H]1NC(=O)[C@H](CCCCN)NC(=O)[C@@H](Cc2c[nH]c3ccccc23)NC(=O)[C@H](Cc2ccccc2)NC(=O)[C@@H]2CCCN2C(=O)[C@H](Cc2ccccc2)NC1=O [Analogue I, cyclo[L-Pro-Phe-D-Trp-Lys-Thr-L-Phe]] (cyclo(PF[dW]KTF))",SGOT (U/l),[1],573 ± 138 U/l
same,Liver histology (Scale: 0-4),[1],1.1 ± 0.1
same,India ink (μl/ml blood) 3 min,phagocytes,12.5 ± 3.0 μl/ml blood
same,India ink (μl/ml blood) 6 min,phagocytes,6.9 ± 0.9 μl/ml blood
same,India ink (μl/ml blood) 12 min,phagocytes,2.6 ± 0.7 μl/ml blood
same,India ink (μl/ml blood) 24 min,phagocytes,2.4 ± 0.5 μl/ml blood
same,Speed of action in carbon clearance compared with somatostatin,phagocytes,faster acting
same,Potency in carbon clearance compared with somatostatin,phagocytes,more potent than somatostatin
"C[C@@H](O)[C@@H]1NC(=O)[C@H](CCCCN)NC(=O)[C@H](Cc2c[nH]c3ccccc23)NC(=O)[C@H](Cc2ccccc2)NC(=O)[C@H](Cc2ccccc2)NC(=O)[C@@H](Cc2ccccc2)NC1=O [Analogue II, cyclo[L-Phe-Phe-L-Trp-Lys-Thr-D-Phe]] (cyclo(FFWKT[dF]))",SGOT (U/l),[1],700 U/l
same,Liver histology (Scale: 0-4),[1],1.0
same,India ink (μl/ml blood) 3 min,phagocytes,13.2 ± 2.0 μl/ml blood
same,India ink (μl/ml blood) 6 min,phagocytes,5.6 ± 0.5 μl/ml blood
same,India ink (μl/ml blood) 12 min,phagocytes,3.2 ± 0.9 μl/ml blood
same,India ink (μl/ml blood) 24 min,phagocytes,1.8 ± 0.2 μl/ml blood
same,Speed of action in carbon clearance compared with somatostatin,phagocytes,faster acting
same,Potency in carbon clearance compared with somatostatin,phagocytes,more potent than somatostatin
"C[C@H](N)C(=O)NCC(=O)N[C@H]1CSSC[C@@H](C(=O)O)NC(=O)[C@H](CO)NC(=O)[C@H]([C@@H](C)O)NC(=O)[C@H](Cc2ccccc2)NC(=O)[C@H]([C@@H](C)O)NC(=O)[C@H](CCCCN)NC(=O)[C@H](Cc2c[nH]c3ccccc23)NC(=O)[C@H](Cc2ccccc2)NC(=O)[C@H](Cc2ccccc2)NC(=O)[C@H](CC(N)=O)NC(=O)[C@H](CCCCN)NC1=O [Regular linear somatostatin, somatostatin]",India ink (μl/ml blood) 3 min,phagocytes,11.7 ± 0.1 μl/ml blood
same,India ink (μl/ml blood) 6 min,phagocytes,11.9 ± 2.6 μl/ml blood
same,India ink (μl/ml blood) 12 min,phagocytes,5.3 ± 1.4 μl/ml blood
same,India ink (μl/ml blood) 24 min,phagocytes,2.6 ± 0.1 μl/ml blood
"somatostatin (AGCKNFFWKTFTSC; not fully specified (bridges); cysteine pairing not given here; UniProt P61278 103-116, looked up) [cyclic tetradecapeptide hormone, reference compound]",Histologic examination of the liver after phalloidin,[2],milder vacuolization of hepatocytes and less congestion
same,Mortality after phalloidin,[2]; control 22 of 24 rats died,significantly smaller number of rats
same,SGOT (U/l),[1],1757 ± 681 U/l
same,Liver histology (Scale: 0-4),[1],2.6 ± 0.3
